Measured values taken from a melting point compilation (Tetko et al.; mined from patent text by program, amines drawn as free bases though some values may be those of a salt).

First: O=C(c1ccccc1)c1nsc2nc3ccccc3n12
Second: O=C(O)C1Sc2ccccc2-c2[nH]c3ccccc3c21 (centres undefined)
The melting point of the first is higher: 190 to 191 °C for the first, 142 °C for the second.

First: CC1(C)Oc2ccc(C#N)cc2C(NC(=O)Nc2ccc3c(c2)CCC3)C1O (centres undefined)
Second: CC1(C)Oc2ccc(C#N)cc2[C@@H](NC2=C(C=O)C(=O)CC2)[C@@H]1O (relative stereo)
The melting point of the first is lower: 235 to 237 °C for the first, 255 to 258 °C for the second.

Compared with `COc1cc2c(cc1OC)N(C)C(=O)CN=C2c1cccnc1`, `COc1cc(Nc2nccc(-c3cccc(NC(=O)c4cc(C)on4)c3)n2)cc(OC)c1OC` is lower in melting point: 177 to 179 °C for the first, 173 to 175 °C for the second.

First: CCOC(=O)C1=Cc2cccc(N3CCCC3=O)c2OCC1
Second: CCOC(=O)c1ncn2c3cccc(Br)c3c(=O)n(C)c12
The melting point of the first is lower: 64 to 66 °C for the first, 272 °C for the second.

First: O=c1[nH]c2c(cc1-c1nnc(C3CC3)o1)CN(Cc1ccccc1)CC2
Second: O=C(NC1CCN(CCC2CCOc3ccccc32)CC1)c1cc2ccccc2o1 (centres undefined)
The melting point of the first is higher: 212 to 214 °C for the first, 146 to 148 °C for the second.

First: Cc1ccc(Oc2nc3ccccc3o2)c(=S)n1C
Second: COP(=O)(Cc1c2ccccc2cc2ccccc12)OC
The melting point of the first is higher: 245 to 247 °C for the first, 152 to 153 °C for the second.

First: Nc1ccc(S(=O)(=O)c2cc(Br)nc(N3CCNCC3)c2)cc1
Second: Nc1ccc(C(=O)C=Cc2ccncc2)cc1
The melting point of the first is lower: 173 to 175 °C for the first, 207 °C for the second.

First: CCOC(=O)C(C)Oc1ccc(Nc2cnc3cc(Cl)ccc3n2)cc1 (centres undefined)
Second: COC(=O)c1cccc(-c2nc(-c3ccc(OC)cc3)cs2)c1
The melting point of the first is higher: 136 °C for the first, 108 to 109 °C for the second.

First: CC(C)C(NC(=O)c1ccc(C(=O)NCc2ccc(N)cc2)cc1)C(=O)N1CCCC1C(=O)NC(C(=O)C(F)(F)F)C(C)C (mixture of isomers)
Second: CC(C)[C@H](NC(=O)N(C)Cc1cccnc1)C(=O)N[C@@H](Cc1ccccc1)[C@H](O)[C@@H](O)[C@H](Cc1ccccc1)NC(=O)[C@@H](NC(=O)N(C)Cc1cccnc1)C(C)C
The melting point of the first is lower: 90 to 92 °C for the first, 95 to 97 °C for the second.

First: Cc1cc(CCc2cc(C)cc(C(C)(C)C)c2O)c(O)c(C(C)(C)C)c1
Second: CN(CCO)Cc1cc(C(=O)c2ccccc2)cc(C(C)(C)C)c1O
The melting point of the first is lower: 104 to 105 °C for the first, 118 to 119 °C for the second.

First: Cc1[nH]cnc1CSCCNC(=O)NCCCCN(C)CCC(c1ccc(Cl)cc1)c1ccccn1 (centres undefined)
Second: CN(CCCc1cc(F)c2ncc(C(=O)NCc3ccc(Cl)cc3)c(O)c2c1)Cc1ccccc1
The melting point of the first is lower: 97 to 98 °C for the first, 161 to 162 °C for the second.

First: CC1(C)CON(Cc2ccc(N3C(=O)c4cccnc4C3=O)cc2Cl)C1=O
Second: CN(C)C(=O)c1ccc(N2CCN(Cc3cnc4c(c3)NC(=O)[C@@H]3CCCN43)CC2)cc1
The melting point of the first is higher: 139 to 141 °C for the first, 99.2 °C for the second.

First: CCOC(=O)CC1CCc2c(sc3c(Cl)cccc23)C1 (centres undefined)
Second: CCOC(=O)c1cc(Cl)cnc1NC(=O)Cc1ccccc1
The melting point of the first is lower: 51 to 53 °C for the first, 114 °C for the second.

First: O=C(O)c1cccc2c1Cc1c-2[nH]c2ccc(F)cc12
Second: CC(=O)Nc1c(C(=O)c2ccc(F)cc2)[nH]c2cc(Cl)ccc12
The melting point of the first is higher: greater than 300 °C for the first, 205 to 207 °C for the second.

Compared with `CCCCCCCOc1ccc(-c2ncc(C#N)cn2)cc1`, `Cc1cc(CCCCCCCOc2ccc(C(=O)NN)cc2)on1` is higher in melting point: 102 °C for the first, 121 to 122 °C for the second.

First: CC1(C)CC(=O)c2c(nc(Cc3ccc(Cl)cc3)c3[nH]c4ccccc4c23)C1
Second: CCOC(=O)c1c(-c2cccc(Cl)c2)c2cc(C(=O)c3nc(-c4ccccc4)cs3)ccc2[nH]c1=O
The melting point of the first is lower: 205 to 207 °C for the first, 261 °C for the second.

First: CCOC(=O)Nc1ccc(OC)cc1C(C)=O
Second: CNC(=O)c1cc(-c2ccc(OC)cc2)nn(C)c1=O
The melting point of the first is lower: 97 to 100 °C for the first, 150 to 151 °C for the second.

First: CSc1noc(-c2ccc(OCCOc3ccccc3)cc2)c1C#N
Second: CC(C)C1=NC(c2ccccc2)=NC(c2ccc(F)cc2)C1=CO (centres undefined)
The melting point of the first is lower: 128 to 131 °C for the first, 183 to 184 °C for the second.

First: CC1C(=C[N+](=O)[O-])Nc2ccc(Cl)cc2C(c2ccccc2F)=[N+]1[O-] (centres undefined)
Second: Cn1cnc2c(Nc3ccc(Cl)cc3)nc(-c3ccccn3)nc21
The melting point of the first is higher: 198 to 200 °C for the first, 185 to 190 °C for the second.

First: CC(=O)Nc1ccc(C#Cc2ccc(C3CC4CCCC(C3)N4C)nn2)cc1 (centres undefined)
Second: CC(=O)Nc1nc2c(s1)-c1c(cnn1-c1ccc(Cl)cc1)C2
The melting point of the first is lower: 270 to 271 °C for the first, 296 to 305 °C for the second.

Compared with `CN(C)C(=O)COc1ccc2c(-c3ccc(Br)cc3)nsc2c1`, `Cc1cc(C=O)ccc1C(=O)NCc1ccccn1` is lower in melting point: 159 °C for the first, 79.5 to 83 °C for the second.

First: NS(=O)(=O)c1ccc(-c2oc3ccc(F)cc3c(=O)c2-c2ccccc2)cc1
Second: O=C(O)c1cccc(-c2ccc(F)c3cc(Cc4cccc(C(F)(F)F)c4)oc23)c1
The melting point of the first is higher: 228 to 229 °C for the first, 172 to 173 °C for the second.

First: CC(C)C(NC(=O)C(Cc1ccccc1)NC(=O)OCc1ccccc1)C(=O)Nc1n[nH]c(=S)s1 (centres undefined)
Second: CCOC(=O)[C@H](CCc1ccccc1)N(C(=O)OCC(Cl)(Cl)Cl)[C@@H](C)C(=O)O
The melting point of the first is higher: 170 to 174 °C for the first, 73 to 75 °C for the second.

First: Cc1nc(-c2c(C#N)nn(-c3c(Cl)cc(C(F)(F)F)cc3Cl)c2N)cs1
Second: O=C(O)c1cnn2c(C(F)(F)F)cc(-c3ccc(Cl)c(Cl)c3)nc12
The melting point of the first is lower: 226 to 228 °C for the first, 264 °C for the second.

First: CN(C)CC1CNc2cc(Cl)ccc2C1 (centres undefined)
Second: CC12C=CC(=O)C=C1CCC1C2C(=O)CC2(C)C(SCc3ccc(Cl)cc3)CCC12 (centres undefined)
The melting point of the first is lower: 107 to 110 °C for the first, 176 to 180 °C for the second.

First: c1cncc(-c2ccc3c(c2)OCO3)c1
Second: CCc1nc2c(C)cc(C)nc2n1Cc1ccc(-c2ccccc2-c2nc(=O)o[nH]2)cc1
The melting point of the first is lower: 92 to 92.5 °C for the first, 149 to 152 °C for the second.

First: CCS(=O)(=O)Nc1cnc(N2CCC(C(=O)O)CC2)nc1NCc1ccccc1
Second: CC(C)(C)NC(=O)N1CCn2cc(-c3ccccc3)c(C(N)=O)c2C1
The melting point of the first is higher: 205 °C for the first, 156 to 158 °C for the second.

Compared with `CC(=O)OC[C@H]1NC(=O)[C@H]1NC(=O)C(=NOC(C)(C)C(=O)OCc1ccc([N+](=O)[O-])cc1)c1csc(NC(=O)CCl)n1` (relative stereo), `COC(=O)C(=CC(=CN(C)C)c1ccccc1[N+](=O)[O-])[N+](=O)[O-]` is higher in melting point: 120 to 123 °C for the first, 211 to 214 °C for the second.

First: O=C1CC(Cc2ccncc2)(Cc2ccncc2)C(=O)N1C12CC3CC(CC(C3)C1)C2
Second: O=C(O)C(O)c1ccccc1Nc1c(Cl)cccc1Cl (centres undefined)
The melting point of the first is lower: 137 to 138 °C for the first, 140 to 142 °C for the second.

Compared with `CNC(=O)C(C(F)F)C(C)(C)C=NO` (centres undefined), `Cc1cc(/C=C/C(c2cc(Cl)cc(Cl)c2)C(F)(F)F)ccc1C(=O)O` (centres undefined) is higher in melting point: 53 to 58 °C for the first, 142 to 143 °C for the second.

Compared with `Cc1c(C)c2c(c(C)c1Br)OC(C)(C)C2=O`, `CCC(CC)Nc1cc(C)nc(Oc2c(C)cccc2C)c1N` is lower in melting point: 125 to 127 °C for the first, 98 to 100 °C for the second.

Compared with `Nc1cc(Cl)cc(N)c1[N+](=O)[O-]`, `Oc1cc(Br)c(Cl)c(Br)c1` is lower in melting point: 202 °C for the first, 120 to 122 °C for the second.

First: O=C(O)C1=Cc2cc(SC(F)(F)F)ccc2OC1C(F)(F)F (centres undefined)
Second: CC(C)CC1(C(CCN2C(=O)c3c(F)c(F)c(F)c(F)c3C2=O)C(=O)NO)CCN(Cc2ccccc2)C1=O (centres undefined)
The melting point of the first is lower: 139 to 143 °C for the first, 183 to 185 °C for the second.

Compared with `OC(c1ccccc1)(c1ccccc1)C(c1ccc(OCc2ccccc2)cc1)n1ccnc1` (centres undefined), `N#CC(C=N)CC(=O)c1ccccc1F` (centres undefined) is lower in melting point: 204 °C for the first, 120 to 122 °C for the second.

With `CC1CN(c2c(F)cc3c(=O)c(C(=O)O)cn(C4CC4)c3c2C#N)CCN1` (centres undefined) the melting point was greater than 300 °C.
